We go through six compounds from article PMC4539082 (Drug Design, Development and Therapy, 2015).

Bounds are passed on as bounds.

The nature of one data set: Half-life in rat. The format is in vivo.
Another data set in a line: Half-life in mice. As to conditions: mouse, in vivo.
A short description of a further data set: Half-life in dog. The data set is classed as in vivo.
The conditions of data set [1]: patients; cited from earlier work.
In another data set the test system is PDX of melanoma. As to conditions: cited from earlier work.
The next data set relates to p3TP Lux mink lung cells. In words: TGF-β-dependent luciferase assay in mink lung cells. The format is cell-based. The conditions noted are these: read-out: p3TP lux, IC50; Mean values ± SEM for a minimum of three determinations (n); data on file.
A further data set relates to NIH3T3. In words: Growth inhibition in mouse fibroblasts. The format is cell-based. As to conditions: read-out: NIH3T3, IC50; Mean values ± SEM for a minimum of three determinations (n); data on file.
The next data set has as its target p38MAPK (Homo sapiens, UniProt Q16539). In words: p38MAPK inhibition, single-point determination. The format is biochemical. The conditions noted are these: read-out: p38MAPK, IC50, data on file.
Data set [2] relates to cell lines that had no T790M mutation. As to conditions: cell lines without T790M mutation; cited from earlier work.
A further data set addresses T1, TGF-βR-I kinase domain (Homo sapiens, UniProt P36897, T204D).
T1 sequence (P36897 148-503 T204D limits assumed): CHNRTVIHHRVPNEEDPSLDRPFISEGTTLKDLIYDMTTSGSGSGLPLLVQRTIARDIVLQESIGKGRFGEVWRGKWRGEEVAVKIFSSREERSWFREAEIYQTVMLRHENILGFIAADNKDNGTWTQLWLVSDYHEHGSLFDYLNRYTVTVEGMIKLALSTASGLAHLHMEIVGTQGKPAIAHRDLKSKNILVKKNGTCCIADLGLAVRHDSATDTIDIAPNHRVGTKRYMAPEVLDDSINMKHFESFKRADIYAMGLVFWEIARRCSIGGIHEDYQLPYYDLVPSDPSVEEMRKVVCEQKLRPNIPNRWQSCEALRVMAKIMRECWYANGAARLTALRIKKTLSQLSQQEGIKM
The data set can be described thus: Ki of Eli Lilly TGF-β SMIs. The conditions noted are these: data on file, Eli Lilly and Company. The data set is classed as biochemical.

The next data set deals with NSCLC cell lines. The conditions noted are these: cited from earlier work.
Another data set concerns MDAPCa2b and PC-3. As to conditions: cited from earlier work.
The next data set relates to lung fibrosis. As to conditions: administration before, during, and after radiation treatment; cited from earlier work.
For data set [3], the system named is pSMAD2 in glioblastoma cell lines. As to conditions: lomustine by itself; cited from earlier work.
The conditions of data set [4]: one patient with malignant melanoma; doses up to 15 mg/kg; cited from earlier work.
For data set [5] the following is noted: 13 patients, 3 mg/kg every 21 days; cited from earlier work.

p38MAPK, sequence (Q16539 whole entry): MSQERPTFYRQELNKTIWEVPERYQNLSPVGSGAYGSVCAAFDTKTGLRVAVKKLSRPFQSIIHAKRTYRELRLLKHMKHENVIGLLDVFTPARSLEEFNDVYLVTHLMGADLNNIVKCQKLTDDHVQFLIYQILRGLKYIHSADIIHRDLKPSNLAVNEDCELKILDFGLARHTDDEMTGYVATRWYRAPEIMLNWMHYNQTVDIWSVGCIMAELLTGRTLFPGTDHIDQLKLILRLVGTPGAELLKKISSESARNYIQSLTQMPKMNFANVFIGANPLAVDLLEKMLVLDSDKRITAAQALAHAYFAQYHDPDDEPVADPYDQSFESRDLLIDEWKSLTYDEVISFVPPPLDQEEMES

Consider `Cc1cccc(-c2nn3c(c2-c2ccnc4ccc(C(N)=O)cc24)CCC3)n1` [Galunisertib (LY2157299)], for which the half-life in the data set “Half-life in rat” (rat, in vivo) was 31.8 min; in “Half-life in mice”, 18 min; in “Half-life in dog” (dog, in vivo) it was 136 min. Moreover, in data set [1], the “drug-related Grade 3/4 toxicities” value is less than 5%. Also, the pSMAD2 entry in the data set on PDX of melanoma (PDX of melanoma) is on record as “inhibited”. The growth inhibitory effect entry in the data set with PDX of melanoma (standard tumor colony assay, melanoma PDX) was “no growth inhibitory effect”.
Regarding `c1ccc(-c2[nH]ncc2-c2ccnc3ccccc23)nc1` [LY364947], the IC50 is 47 ± 16 nM in the data set with p3TP Lux mink lung cells, 89 ± 10 nM in the data set on NIH3T3 and 740 nM on p38MAPK. In addition, the EGFR resistance entry in data set [2] is “able to overcome the EGFR resistance”.
`Cc1cccc(-c2nn3c(c2-c2ccc(F)cc2)CCC3)n1` [LY580276] gave a Ki at TGF-βR-I kinase domain of 37 nM. Further, the values for the IC50 with p3TP Lux mink lung cells, with NIH3T3 and at p38MAPK were 96 ± 16 nM, 339 ± 349 nM and more than 20000 nM, respectively.
On to `c1ccc(-c2nn3c(c2-c2ccnc4cc(OCCN5CCOCC5)ccc24)CCC3)nc1` [LY2109761], for which the IC50 in the data set with p3TP Lux mink lung cells is 180 ± 93 nM; in the data set with NIH3T3, 210 ± 170 nM. Moreover, the Half-life mean in the data set “Half-life in rat” (Rat, data on file) was 108 min; in the data set “Half-life in dog” (Dog, data on file) it was 60 to 120 min. In the data set with NSCLC cell lines, the metastatic spread result was “reduced metastatic spread”. Also, the “antitumor activity, bone metastasis” value in the data set on MDAPCa2b and PC-3 is listed as “inhibiting bone metastasis”. Moreover, the lung fibrosis result in the data set on lung fibrosis is “inhibited lung fibrosis”.
Take `O=NN(CCCl)C(=O)NC1CCCCC1` [lomustine]: the pSMAD2 result in [3] is given as “reduced pSMAD2”.
For the compound “fresolimumab: pan-TGF-β ligand monoclonal antibody”, the “duration of partial response” value in data set [4] was 44.4 weeks. Besides, the radiographic responses result in data set [5] is recorded as “None of the patients had radiographic responses”.
